The values below come from publication PMC5893540, “Mechanistic insights into allosteric regulation of the A2A adenosine G protein-coupled receptor by physiological cations” (Nature Communications, 2018).

One may read the Ki as the equilibrium dissociation constant of an inhibitor or competing ligand from its target. What is called Kd is the constant that tells how readily two partners part at equilibrium.

Each structure is given as a SMILES string. Where “and” joins values, the source holds several entries; their conditions need not be identical. Identical values can stand only once. Entries after “also recorded” stand apart in the source; their conditions may differ. Like-named read-outs stand apart in the source and are kept apart here.

One test deals with T1, BTFMA-labeled A2AR-V229C (Homo sapiens, UniProt P29274, V229C).
T1 construct: alpha-factor secretion leader (Fα-Factor) (N); Flag (N); TEV site (N); His10 (H10) (C); made in house; host or cells: Pichia pastoris SMD 1163
In words: 19F NMR of functional state populations (S1-2, S3, S3'). Conditions: for effect on populations of functional states: apo A2AR in MNG-3 micelles, divalent cations 100–500 mM, KCl with 10 or 100 mM NaCl; for effect on active state population: 20 mM cation, saturating NECA and Gαs peptide, 100 mM NaCl. The protocol:
Here, spectra are deconvolved into three resonances, referred to as S1−2, S3, and S3′, in keeping with previously published work[1].
NMR samples typically consisted of 250 μL volumes of 25–200 μM A2AR-V229C in 50 mM HEPES buffer (pH 7.4) and 100 mM NaCl, doped with 10% D2O. The receptor was stabilized in 0.1% MNG-3 and 0.02% CHS. All ^19F NMR experiments were performed on a 600 MHz Varian Inova spectrometer using a cryogenic triple resonance probe, with the high frequency channel tunable to either ^1H or ^19F. […] Most spectra were acquired with 10,000–50,000 scans depending on sample concentration. Processing typically involved zero filling, and exponential apodization equivalent to 20 Hz line broadening.

Another test concerns the target T2, A2AR + Gs (Homo sapiens, UniProt P29274, V229C).
T2 construct: Flag (N); TEV site (N); His10 (H10) (C); expressed in transfected cells; host or cells: Sf9 insect cells, baculovirus co-infection (A2AR, Gαs, Gβγ); membranes
In words: [3H]NECA binding in A2AR/Gs-infected Sf9 membranes. Conditions: for effect of cation on specific [3H]NECA binding / EC50: 10 nM [3H]NECA; for effect of cation on specific [3H]NECA binding: increasing cation concentration; for effect on [3H]NECA high affinity saturation: 2.5 mM cation; for EC50: read-out: half-maximal cation concentration for enhancement of [3H]NECA binding, 100 mM NaCl. The source says:
The above ^19F NMR observations are further recapitulated in radioligand binding assays in Sf9 cell membranes in which the identical A2AR construct was co-expressed with the heterotrimeric stimulatory G protein, Gαsβγ.
Error bars for radioligand binding assays are defined based on three replicates

Test [1] concerns the target T3, apo A2AR-V229C (Homo sapiens, UniProt P29274, V229C). In words: 25Mg NMR line width binding isotherm and Ca2+ competition. Also on record: alpha-factor secretion leader (Fα-Factor) (N); Flag (N); TEV site (N); His10 (H10) (C); made in house; host or cells: Pichia pastoris SMD 1163. The protocol:
The experiment was performed on an Agilent DD2-600 NMR, equipped with a 10 mm low gamma direct detect probe and low frequency pre-amp. The experimental parameters used were as follows: 20 °C, a Larmor frequency of 36.72 MHz, a spectral width of 2.5 kHz, 1.1 s acquisition time, 0.5 s relaxation time, a 30 µs 90° excitation pulse, and between 128 and 2048 scans depending on the signal-to-noise ratio. For the Kd determination of Mg^2+ the following protocol was used: A 1 M MgCl2 solution with 10 mM DyCl3 in D2O was used as a reference and was placed in a 5-mm OD tube. A sample of 1.5 mL of the protein solution was placed in a 10-mm OD NMR tube. The reference tube was thoroughly cleaned and inserted into the 10-mm tube and centered with a plastic cap. Titration volumes of 3–37 µL of 4.64 M MgCl2 were added directly to the 10-mm tube which was then gently mixed using a vortex shaker. The sample was allowed to equilibrate in the magnet for 10 min at the set temperature and the sample was then locked, tuned, gradient shimmed and acquired. […] The sample was allowed to equilibrate at the set temperature in the magnet for 10 min and then locked, tuned, gradient shimmed and acquired. The Kd and Ki values were determined, using GraphPad Prism 6 software, by fitting the data to the formula, y = A × x/(Kd + x), where x represents the cation concentration.

For test [2], the target named is T3, apo A2AR-V229C. In words: 23Na NMR binding isotherm (line width / chemical shift).
Protocol: Relaxation dispersions associated with ^23Na CPMG experiments, shown in Fig. 2e, provide an additional measure of cation binding and exchange dynamics.
The experiments were performed on a 600 MHz Varian VNMRS spectrometer using a room temperature XH broadband probe (X-nucleus on the inner coil). […] An external ^23Na reference was prepared by mixing 50 mM NaCl and 50 mM TmCl3 in equal volumes prior to loading into the coaxial insert. […] Information regarding binding can be reliably obtained by observing the shift of the free peak and line broadening associated with fast exchange between “free” and “bound” states.

T3 sequence (P29274 1-316 V229C limits assumed): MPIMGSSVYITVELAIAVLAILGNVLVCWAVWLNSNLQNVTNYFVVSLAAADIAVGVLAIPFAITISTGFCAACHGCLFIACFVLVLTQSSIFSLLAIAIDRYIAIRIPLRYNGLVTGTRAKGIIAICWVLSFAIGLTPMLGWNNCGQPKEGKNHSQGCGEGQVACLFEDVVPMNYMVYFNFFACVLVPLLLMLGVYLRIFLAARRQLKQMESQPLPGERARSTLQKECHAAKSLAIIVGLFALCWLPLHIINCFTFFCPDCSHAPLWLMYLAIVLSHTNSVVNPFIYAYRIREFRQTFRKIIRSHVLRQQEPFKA
T2 sequence (P29274 1-316 V229C limits assumed): as above
T2 sequence (P63092 whole entry partner): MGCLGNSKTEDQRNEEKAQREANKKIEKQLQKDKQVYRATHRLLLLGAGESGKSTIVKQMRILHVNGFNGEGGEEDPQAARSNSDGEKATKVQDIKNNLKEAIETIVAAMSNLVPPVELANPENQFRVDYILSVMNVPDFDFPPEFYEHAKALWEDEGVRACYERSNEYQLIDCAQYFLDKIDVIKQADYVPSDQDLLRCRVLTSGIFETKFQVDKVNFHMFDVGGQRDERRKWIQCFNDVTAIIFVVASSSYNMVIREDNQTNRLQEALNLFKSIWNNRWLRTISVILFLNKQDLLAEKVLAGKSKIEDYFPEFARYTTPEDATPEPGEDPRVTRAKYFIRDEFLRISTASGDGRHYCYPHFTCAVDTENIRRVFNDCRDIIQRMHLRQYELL
T2 sequence (P62873 whole entry partner): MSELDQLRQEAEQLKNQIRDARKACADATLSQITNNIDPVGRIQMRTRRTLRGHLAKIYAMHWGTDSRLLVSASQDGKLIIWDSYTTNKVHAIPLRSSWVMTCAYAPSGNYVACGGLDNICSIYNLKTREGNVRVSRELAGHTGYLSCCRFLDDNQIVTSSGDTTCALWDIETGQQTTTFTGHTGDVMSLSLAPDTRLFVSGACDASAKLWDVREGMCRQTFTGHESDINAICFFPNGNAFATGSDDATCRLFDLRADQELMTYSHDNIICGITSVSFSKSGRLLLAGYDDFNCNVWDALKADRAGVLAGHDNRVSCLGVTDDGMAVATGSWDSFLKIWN
T2 sequence (P59768 2-68 partner limits assumed): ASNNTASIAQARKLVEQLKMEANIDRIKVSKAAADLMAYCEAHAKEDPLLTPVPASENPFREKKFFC
T1 sequence (P29274 1-316 V229C limits assumed): as the sequence (P29274 1-316 V229C limits assumed) above

Turning to `[Cl-].[K+]` [KCl], at BTFMA-labeled A2AR-V229C, the “effect on populations of functional states” value (“effect on populations” below) was “no significant change”.
For the compound `[Ca+2].[Cl-].[Cl-]` [Ca^2+, CaCl2], at A2AR + Gs, the “effect of cation on specific [3H]NECA binding” value (“effect of cation on specific” for short) is given as “significantly enhance”; the “effect on [3H]NECA high affinity saturation” value is “enhance maximal specific [^3H]NECA binding and affinity (Kd)”; the EC50 was in the range of 0.35 to 0.4 mM. Besides, on A2AR + Gs (listed as Ca2+), the EC50 was found to be 0.35 mM. Besides, the Ki at apo A2AR-V229C [1] (50 mM 25Mg2+, increasing CaCl2, 50 µM apo-A2AR-V229C, read-out: Ki of Ca2+ displacement of Mg2+) worked out at 98 ± 41 mM. On BTFMA-labeled A2AR-V229C, the “effect on active state population” value is reported as “detectable increase in the proportion of active states” and the “effect on populations” value is “shift the equilibrium of apo A2AR toward the active states”.
With `[Cl-].[Cl-].[Zn+2]` [Zn^2+, ZnCl2], the “effect of cation on specific” value on A2AR + Gs was “reduce high affinity binding; also recorded: reduced binding; also recorded: no positive allosteric effects”.
As to `[Cl-].[Cl-].[Mg+2]` [Mg^2+, MgCl2], on A2AR + Gs, the “effect of cation on specific” value is recorded as “significantly enhance”; the “effect on [3H]NECA high affinity saturation” value is “enhance maximal specific [^3H]NECA binding and affinity (Kd)”; the EC50 lay in the range of 0.35 to 0.4 mM. The EC50 on A2AR + Gs (listed as Mg2+) was 0.35 mM. The Kd at apo A2AR-V229C [1] (50 µM apo-A2AR-V229C, 100 mM Na+, N=1, fitting error, read-out: dissociation constant Kd of MgCl2) came to 60 ± 15 mM. Also, at BTFMA-labeled A2AR-V229C, the “effect on active state population” value is listed as “detectable increase in the proportion of active states; also recorded: obvious increase in the active S3′ state population” and the “effect on populations” value was “shift the equilibrium of apo A2AR toward the active states”.
As to `[Fe+2]` [Fe^2+], the “effect of cation on specific” value on A2AR + Gs is “no positive allosteric effects”. On BTFMA-labeled A2AR-V229C, the “effect on active state population” value was “did not”.
Turning to `[Cl-].[Na+]` [sodium, NaCl], on apo A2AR-V229C [2] (read-out: dissociation constant Kd of sodium, apo A2AR-V229C 50 μM, line width-based isotherm, 10–1000 mM NaCl), the Kd is 60 mM and ~60 mM. Also, the “effect on populations” value on BTFMA-labeled A2AR-V229C was “shifts the equilibrium toward the inactive ensemble”.
For the compound `NC(N)=NC(=O)c1nc(Cl)c(N2CCCCCC2)nc1N` [HMA, 5-(N,N-hexamethylene)amiloride, reference compound], on apo A2AR-V229C [2] (100 mM NaCl, stoichiometric equivalents of HMA), the “competition with sodium in 23Na NMR binding isotherm” value is given as “compete with sodium”.
